Assay results reported in BigSolDB 2.1.

c1ccc2ccccc2c1
Conditions | solubility (mole fraction)
in DMF, 278.05 K | 0.162
in DMF, 283.05 K | 0.185
in DMF, 288.15 K | 0.215
in DMF, 292.75 K | 0.244
in DMF, 298.05 K | 0.281
in DMF, 303.25 K | 0.307
in DMF, 307.95 K | 0.354
in DMF, 313.15 K | 0.406
in DMF, 318.15 K | 0.465
in NMP, 278.18 K | 0.269
in NMP, 283.25 K | 0.289
in NMP, 288.17 K | 0.307
in NMP, 293.2 K | 0.336
in NMP, 298.16 K | 0.379
in NMP, 303.21 K | 0.41
in NMP, 308.17 K | 0.438
in NMP, 313.16 K | 0.486
in NMP, 318.21 K | 0.535
in NMP, 323.27 K | 0.577
in THF, 278.6 K | 0.241
in THF, 284.35 K | 0.273
in THF, 288.25 K | 0.292
in THF, 293.25 K | 0.324
in THF, 298 K | 0.352
in THF, 303.2 K | 0.385
in THF, 308.19 K | 0.428
in THF, 313.25 K | 0.469
in THF, 318.35 K | 0.51
in THF, 323.2 K | 0.566
in THF, 328.21 K | 0.6
in THF, 333.22 K | 0.629
in acetone, 278.15 K | 0.124
in acetone, 283.15 K | 0.143
in acetone, 288.05 K | 0.171
in acetone, 293.25 K | 0.194
in acetone, 298.35 K | 0.226
in acetone, 303 K | 0.268
in acetone, 308.1 K | 0.307
in acetone, 313.05 K | 0.361
in acetone, 318.15 K | 0.417
in acetone, 323.05 K | 0.477
in ethyl acetate, 278.2 K | 0.174
in ethyl acetate, 283.17 K | 0.191
in ethyl acetate, 288.21 K | 0.217
in ethyl acetate, 293.19 K | 0.233
in ethyl acetate, 298.25 K | 0.276
in ethyl acetate, 303.2 K | 0.314
in ethyl acetate, 308.21 K | 0.357
in ethyl acetate, 313.23 K | 0.406
in ethyl acetate, 318.17 K | 0.465
in ethyl acetate, 323.21 K | 0.526
in isobutyl acetate, 278.18 K | 0.183
in isobutyl acetate, 283.2 K | 0.205
in isobutyl acetate, 288.22 K | 0.232
in isobutyl acetate, 293.23 K | 0.259
in isobutyl acetate, 298.19 K | 0.299
in isobutyl acetate, 303.23 K | 0.335
in isobutyl acetate, 308.45 K | 0.387
in isobutyl acetate, 313.2 K | 0.433
in isobutyl acetate, 318.17 K | 0.483
in isobutyl acetate, 323.21 K | 0.539
in n-butyric acid, 278.17 K | 0.0834
in n-butyric acid, 283.27 K | 0.0952
in n-butyric acid, 288.45 K | 0.113
in n-butyric acid, 293.2 K | 0.129
in n-butyric acid, 298.26 K | 0.154
in n-butyric acid, 303.22 K | 0.179
in n-butyric acid, 308.2 K | 0.215
in n-butyric acid, 313.3 K | 0.253
in n-butyric acid, 318.19 K | 0.292
in n-butyric acid, 323.28 K | 0.34
